Measurements reported in paper PMC9523446 (Frontiers in Pharmacology, 2022).
Values joined by “and” are separate entries in the source; they are usually repeats but may differ in a detail not shown here. Equal values may be shown once. “Also recorded” adds a separate entry of the source. Where a name gives a salt, the structure may show the parent alone. Read-outs that look alike come from different tables or passages of the source. Starred links: 1 amine or outer side, 2 acyl side, 3 side chain; linkers in the order of their positions; H or OH if unused. Positions of bridges follow the written chain, without caps; N, C: chain ends. Non-standard residues stand in square brackets, D forms with d. Residues, ends and D or L forms follow the SMILES beside them. Chains are numbered I, II in the order given. Actinocin(9to1) = Cc1c2oc3c(C)ccc(C(=O)[*:1])c3nc-2c(C(=O)[*:2])c(N)c1=O; NMeV = CN[C@H](C(=O)O)C(C)C; Sar = CNCC(=O)O

Legend:
human α10 nAChRs [1] = target: T1, human α10 nAChRs (Homo sapiens, UniProt Q9GZZ6); format: cell-based; parameters: expressed in transfected cells
T1 sequence (Q9GZZ6 25-450): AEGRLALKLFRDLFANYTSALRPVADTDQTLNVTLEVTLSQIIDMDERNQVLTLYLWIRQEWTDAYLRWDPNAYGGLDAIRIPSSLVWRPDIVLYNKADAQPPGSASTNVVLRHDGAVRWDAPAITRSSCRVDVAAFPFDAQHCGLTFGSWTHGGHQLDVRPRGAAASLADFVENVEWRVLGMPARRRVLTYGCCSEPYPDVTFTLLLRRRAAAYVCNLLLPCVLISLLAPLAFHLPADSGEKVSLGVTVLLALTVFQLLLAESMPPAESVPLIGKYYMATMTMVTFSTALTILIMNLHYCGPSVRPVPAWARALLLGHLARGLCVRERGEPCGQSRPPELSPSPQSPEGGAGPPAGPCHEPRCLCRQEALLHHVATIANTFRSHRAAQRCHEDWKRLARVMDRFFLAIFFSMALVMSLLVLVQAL

human α10 nAChRs [2] = target: T1, human α10 nAChRs; test: Agonist activation of α10 nAChRs, concentration-response in oocytes; parameters: Emax: dose or concentration left out as unconfirmed
Protocol: For the assessment of ligand activity, the oocyte membranes were clamped at a holding potential of −70 mV and continuously perfused with saline (control solution). […] Ligands were applied in this manner for concentrations up to 1 µM.

human α9α10 nAChRs [3] = target: T2, human α9α10 nAChRs (Homo sapiens, UniProt Q9GZZ6+Q9UGM1); test: Desensitization to 15 s pulse of ACh in calcium or barium saline; format: cell-based; settings: for peak current amplitude in response to ACh: 15 s pulse of EC50 ACh, oocytes incubated in saline only
T2 construct: expressed in transfected cells; host or cells: Xenopus laevis oocytes co-injected with α9 and α10 cRNAs (1:1)
T2 sequence (Q9UGM1 26-479 limits assumed): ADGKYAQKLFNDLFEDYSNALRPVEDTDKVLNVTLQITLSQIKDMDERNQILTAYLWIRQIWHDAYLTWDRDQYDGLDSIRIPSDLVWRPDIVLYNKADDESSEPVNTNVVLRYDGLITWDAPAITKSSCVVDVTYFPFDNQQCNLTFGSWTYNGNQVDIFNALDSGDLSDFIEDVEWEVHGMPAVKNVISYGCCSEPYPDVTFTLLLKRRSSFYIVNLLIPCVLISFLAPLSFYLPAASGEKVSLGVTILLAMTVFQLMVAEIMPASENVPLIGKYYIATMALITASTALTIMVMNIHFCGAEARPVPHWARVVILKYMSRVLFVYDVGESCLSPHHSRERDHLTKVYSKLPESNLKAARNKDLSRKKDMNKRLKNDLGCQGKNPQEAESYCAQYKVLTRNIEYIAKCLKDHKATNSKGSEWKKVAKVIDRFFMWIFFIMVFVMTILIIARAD
T2 sequence (Q9GZZ6 25-450): as the sequence (Q9GZZ6 25-450) above
From the text: (§1) Similar to the results presented in Figure 2, peak ACh-evoked currents from α10 nAChRs were reduced in the presence of barium compared to calcium (Figures 10A,B). […] By contrast with α10 nAChRs, α9α10 currents were much smaller in the presence of barium compared to calcium (Figures 10C,D). Furthermore, α9α10 nAChRs desensitized more slowly than α10 nAChRs.

human α10 nAChRs [4] = target: T1, human α10 nAChRs; test: as above; format: cell-based; parameters: expressed in transfected cells; settings: for peak current amplitude in response to ACh: 15 s pulse of EC50 ACh, oocytes incubated in STR (20 μM)
From the text: as §1

human α10 nAChRs [5] = target: T1, human α10 nAChRs; settings: ACh 1 mM
Protocol: For the assessment of ligand activity, the oocyte membranes were clamped at a holding potential of −70 mV and continuously perfused with saline (control solution). […] Ligands were applied in this manner for concentrations up to 1 µM. […] For experiments examining the desensitization kinetics of α10-containing nAChRs, sibling oocytes were injected with 25 ng of cRNA for α10 subunits or cRNA for α9 and α10 subunits (25 ng each). Actinomycin-D (1 µM) was also used in some experiments to prevent RNA transcription and inhibit the expression of endogenous chloride channels. The oocytes were incubated in actinomycin-D for 36 h prior to assessment with TEVC electrophysiology.

human α10 nAChRs [6] = target: T1, human α10 nAChRs; test: Decay of ACh-evoked currents of ligand-incubated oocytes during saline perfusion (one-phase exponential plateau); settings: oocytes treated 3 days with 20 μM ligand; ACh 1 mM; calculated plateau, 95% CI in parentheses
human α10 nAChRs [7] = target: T1, human α10 nAChRs; test: cell-based; format: cell-based; parameters: expressed in transfected cells; settings: for ACh response in presence of ligand, of control values: oocytes incubated with BRU (20 μM)
human α9α10 nAChRs [8] = target: T2, human α9α10 nAChRs; test: cell-based
human α9 nAChRs = human α9 nAChRs (Homo sapiens, UniProt Q9UGM1)
human α9 nAChRs, sequence (Q9UGM1 26-479 limits assumed): as the sequence (Q9UGM1 26-479 limits assumed) above

[9] = system: X. laevis oocytes injected with water
[10] = oocytes treated 3 days with 20 μM ligand, ACh 1 mM
[11] = read-out: inhibition of ACh-evoked responses

CC(=O)OCC[N+](C)(C)C [ACh, acetylcholine]
ACh-evoked current amplitude (human α10 nAChRs [1]; oocytes treated 3 days with 5 mM ligand, ACh 1 mM, ± SD): −17 ± 11 nA | Hill Slope of activation curve (human α10 nAChRs [2]; oocytes incubated in STR (20 μM), 95% CI in parentheses): 1.1 (0.9–1.3) | peak current amplitude in response to ACh (human α9α10 nAChRs [3]; barium): −31 ± 40 nA | peak current amplitude in response to ACh (human α9α10 nAChRs [3]; calcium): −484 ± 270 nA | current at the end of the 15 s pulse of ACh (human α9α10 nAChRs [3]; barium): −23 ± 30 nA | current at the end of the 15 s pulse of ACh, of peak amplitude (human α9α10 nAChRs [3]; barium): 73 ± 8% | current at the end of the 15 s pulse of ACh (human α9α10 nAChRs [3]; calcium): −154 ± 74 nA | current at the end of the 15 s pulse of ACh, of peak amplitude (human α9α10 nAChRs [3]; calcium): 33 ± 4% | peak current amplitude in response to ACh (human α10 nAChRs [4]; barium): −1,430 ± 1,424 nA | peak current amplitude in response to ACh (human α10 nAChRs [4]; calcium): −1,818 ± 1,329 nA | current at the end of the 15 s pulse of ACh (human α10 nAChRs [4]; barium): −459 ± 375 nA | current at the end of the 15 s pulse of ACh, of peak amplitude (human α10 nAChRs [4]; barium): 35 ± 11% | current at the end of the 15 s pulse of ACh (human α10 nAChRs [4]; calcium): −553 ± 396 nA | current at the end of the 15 s pulse of ACh, of peak amplitude (human α10 nAChRs [4]; calcium): 31 ± 6%

Cc1c2oc3c(C)ccc(C(=O)N[C@@H]4C(=O)N[C@H](C(C)C)C(=O)N5CCC[C@H]5C(=O)N(C)CC(=O)N(C)[C@@H](C(C)C)C(=O)O[C@@H]4C)c3nc-2c(C(=O)N[C@@H]2C(=O)N[C@H](C(C)C)C(=O)N3CCC[C@H]3C(=O)N(C)CC(=O)N(C)[C@@H](C(C)C)C(=O)O[C@@H]2C)c(N)c1=O [Actino-D, actinomycin-D] (I: T[dV]P[Sar][NMeV] / II: T[dV]P[Sar][NMeV]; ester I:1-I:C, II:1-II:C; linker I:N-II:N via Actinocin(9to1))
ACh-evoked response amplitude (human α10 nAChRs [5]; sibling oocytes incubated with 1 µM actinomycin-D (and STR 20 μM), barium): −164 ± 96 nA | ACh-evoked response amplitude (human α10 nAChRs [5]; sibling oocytes incubated with 1 µM actinomycin-D (and STR 20 μM), calcium ([…])): −186 ± 96 nA

COc1cc2c(cc1OC)[C@@]13CCN4CC5=CCO[C@H]6CC(=O)N2[C@H]1[C@H]6[C@H]5C[C@H]43 [BRU, dimethoxystrychnine sulfate hydrate]
plateau to which ACh-evoked currents decay, of initial current amplitudes (human α10 nAChRs [6]): 15% and 15 (13–17) % | range of ACh-evoked current amplitudes (human α10 nAChRs [1]; [10]): −50 to −888 nA | ACh-evoked current amplitude (human α10 nAChRs [1]; oocytes treated 3 days with 20 μM ligand, ACh 1 mM, ± SD): −302 ± 225 nA | ACh response in presence of ligand, of control values (human α10 nAChRs [7]; ligand 100 nM perfused): 87 ± 16% | ACh response in presence of ligand, of control values (human α10 nAChRs [7]; ligand 1 μM (2nd of series 100 nM through 300 μM)): 246 ± 74% | ACh response in presence of ligand, of control values (human α10 nAChRs [7]; ligand 10 μM (3rd of series 100 nM through 300 μM)): 371 ± 101% | ACh response in presence of ligand, of control values (human α10 nAChRs [7]; ligand 100 μM (4th of series 100 nM through 300 μM)): 260 ± 102% | ACh response in presence of ligand, of control values (human α10 nAChRs [7]; ligand 300 μM perfused): 168 ± 73%

O=C1C[C@@H]2OCC=C3CN4CC[C@]56c7ccccc7N1[C@H]5[C@H]2[C@H]3C[C@H]46 [STR, strychnine]
ACh-evoked currents after acute application, of control values (human α9α10 nAChRs [8]): 1.0 ± 0.5% | inhibition at 20 µM (human α9α10 nAChRs [8]; [11]): ~99% | plateau to which ACh-evoked currents decay, of initial current amplitudes (human α10 nAChRs [6]): 74% and 74 (72–76) % | range of ACh-evoked current amplitudes (human α10 nAChRs [1]; [10]): −76 to −2,378 nA | ACh-evoked current amplitude after exposure to STR (human α9 nAChRs; subset of choline-incubated oocytes then incubated in STR (20 μM) for 24 h, ACh 100 μM): −2.1 ± 1.2 nA | ACh-evoked current amplitude [9]: −1.6 ± 0.7 nA | ACh-evoked currents after acute application, of control values (human α10 nAChRs [7]): 52 ± 13% | IC50 (human α10 nAChRs [7]): 20.2 µM | enhancement of ACh-evoked current amplitudes (human α10 nAChRs [7]): 518 ± 411% | response to ACh after perfusion with ligand (human α10 nAChRs [7]): −294 ± 149 nA | inhibition at 20 µM (human α10 nAChRs [7]; [11]): ~50% | ACh-evoked response amplitude (human α10 nAChRs [5]; oocytes treated 36 h with STR (20 μM), calcium replaced with equimolar barium): −301 ± 225 nA | ACh-evoked response amplitude (human α10 nAChRs [5]; oocytes treated 36 h with STR (20 μM), saline with calcium ([…])): −373 ± 273 nA

C[N+](C)(C)CCO [choline]
ACh-evoked current amplitude before exposure to STR (human α9 nAChRs): −78 ± 44 nA | Emax (human α10 nAChRs [2]; read-out: maximal response, of the calculated maximal response to ACh): 4 ± 2%

CN1CCC[C@H]1c1cccnc1 [nicotine, (-)-nicotine hydrogen tartrate]
ACh-evoked current amplitude (human α10 nAChRs [1]): −6.0 ± 6.2 nA | agonist-evoked currents (human α10 nAChRs [2]; concentrations up to 1 mM, oocytes incubated in STR (20 μM)): failed to evoke current responses; also recorded: failed to induce detectable currents | ACh responses in the presence of ligand (human α10 nAChRs [7]): 99 ± 8%
